The results in this text go back to article PMC4278898 (PLoS ONE, 2014).

Data set [1] concerns PBMC cells. Kind of data set: Cytotoxicity assay (resazurin fluorometric method), PBMC cells. The class given is cell-based, human. A general note: The colour change of resazurin is a common sign of viable cells or microbes.
In data set [2] the test system is TZM-bl cells. In words: Cytotoxicity assay (resazurin fluorometric method), TZM-bl cells. The class given is cell-based, human.
For data set [3], the system named is HIV-1 89.6. Kind of data set: Anti-HIV activity in H9 cells, HIV-1 89.6 (p24 ELISA). The data set is classed as cell-based. The conditions noted are these: for inhibition of infection / anti-HIV activity, H9 cells, HIV-1 89.6: p24 ELISA, concentration not given. As for the experimental part:
(§1) HIV-1 infection of H9 cells was performed as described by Gurgo et al. as follows: H9 cells were seeded at 1×10^5 cell/mL into a 24 well plate. […] After 48 hours of incubation, the supernatant was collected and frozen at −80°C. ELISA was performed to detect p24, and the cytotoxicity assay was done using the resazurin fluorometric method, as described previously.
(§2) The HIV-1 p24 Antigen ELISA 2.0 Kit (ZeptoMetrix Corporation, Bufalo, NY) was used to monitor and determine the titer of HIV-1-based lentiviral samples, as described by Gonçalves et al.. For each sample (n = 9), a 225 µL volume was treated with 25 µL of lysing buffer. An ELISA array plate was washed three times with 300 µL/well of wash buffer in a microplate washer (MultiWash III, TriContinent, Grass Valley, CA), and 200 µL/well of each treated samples was transferred to the plate. The plate was incubated at 37°C for 3 hours, then washed six times, incubated for 1 hour with 100 µL/well of HIV-1 p24 detector antibody, washed six more times, and incubated 30 min at room temperature with 100 µL/well of substrate. The reaction was stopped by addition of stop solution (100 µL/well). The absorbance was determined using a microplate reader (SpectraMax M5, Molecular Devices, Sunnyvale, CA) at 450 nm, and the samples were calibrated against the HIV-1 p24 standard curve, generated from a series of standards loaded on the same plate.

Data set [4] concerns HIV-1 MN. Kind of data set: Anti-HIV activity in H9 cells, HIV-1 MN (p24 ELISA). The class given is cell-based. The conditions noted are these: for inhibition of infection / anti-HIV activity, H9 cells, HIV-1 MN: concentration not given. As for the experimental part:
as §1, §2

Data set [5] relates to HeLa cells. Kind of data set: Cytotoxicity assay (resazurin fluorometric method), HeLa cells. The data set is classed as cell-based, human.
Data set [6] deals with HIV-1 MN. In words: Anti-HIV activity in PBMC, HIV-1 MN (p24 ELISA). The class given is cell-based. The conditions noted are these: for anti-HIV activity, PBMC cells, HIV-1 MN: concentration not given.
Data set [7] deals with HIV-1 BaL. In words: Anti-HIV activity in infected TZM-bl cells (luciferase). The class given is cell-based. Particulars: for anti-HIV activity compared with the vehicle control (HIV-1 BaL, TZM-bl): concentration not stated (range 0.01–100 µM).
Data set [8] has as its system H9 cells. Kind of data set: Cytotoxicity assay (resazurin fluorometric method), H9 cells. The data set is classed as cell-based, human.
In data set [9] the test system is HIV-1 89.6. In words: Anti-HIV activity in PBMC, HIV-1 89.6 (p24 ELISA). The class given is cell-based. The conditions noted are these: for IC50: Human immunodeficiency virus 1, HIV-1 89.6, p24 ELISA; for anti-HIV activity, PBMC cells, HIV-1 89.6: p24 ELISA, concentration not given. As for the experimental part: The viability of the cells was assessed by the resazurin fluometric method as describe previously. After incubation, the supernatant from each well was collected and stored at -80°C for performance of p24 ELISA.
as §2
Background: ELISA stands for enzyme-linked immunosorbent assay.

Data set [10] in a line: Cytotoxicity tests on TZM-bl, HeLa, PBMC and H9 cells (summary statements). The class given is cell-based, human. Particulars: human, TZM-bl, HeLa, PBMC, H9; for viability at 24 h: at concentrations between 20 µM–60 µM, read-out: cell viability.
Method: (§3) The in vitro cytotoxic effect of each of the flavonoids was determined by a resazurin fluorometric method (Cell Titer Blue Viability Assay, Promega Corp, Madison, WI), as described by O'Brien et al. [27]. TZM-bl and HeLa adherent cells were each separately seeded (1×10^5 cell/mL) into a 96 well plate (Greiner Bio-One North America, Inc Monroe, NC, USA). After 24 hours, their morphology was observed under an inverted microscope. The experimental natural compounds were then added to the cultured cells (n = 9) plates, and incubated for 24 hours. The cells were washed with pre-warmed PBS (Lonza Walkersville, Inc. Walkersville, MD) and the medium was replaced with medium pre-warmed to 37°C. Resazurin was added, and the cells were incubated for 3.5 hours. […] The cytotoxic effect of the three flavonoids on H9 and PBMC cells was determined using the same protocol.
Data set [11] relates to TZM-bl, HeLa, PBMC, and H9 cells. The description is as above. The class given is cell-based, human. The conditions noted are these: positive control AZT 60 µM.
Method: as §3
Data set [12] deals with HeLa cell layer. In words: Trans Epithelial Electric Resistance (TEER) of HeLa cell layer in dual-chamber model. Particulars: dual-chamber transwell insert.
Method: (§4) Transwell assay inserts with 8 µM diameter pores and 0.3 cm^2 of culture surface (Greiner Bio-One, Monroe, NC,) were positioned in the wells of a 24-well plate. Then 1×10^4 HeLa cells were seeded into each transwell insert/apical chamber (using DMEM with 10% FBS). TZM-bl cells (1×10^5) were seeded into the basal chambers below the inserts, and the plates were incubated at 37°C in humid air containing 5% CO2. To assess confluence, the Trans Epithelial Electric Resistance (TEER) (described by Arien et al. [33]) of each HeLa cell layer was measured with a Millicell-ERS Volt-Ohm Meter (Millipore, Bedford, MA) before and after flavonoids treatments. Cell layer confluence in the transwell inserts was measured daily, until the optimal TEER (>150 Ohm/cm^2) was reached on day 4. On day 4, the media in the basal chamber and the insert was replaced with new pre-warmed media. […] The plate was incubated at 37°C, in humid air containing 5% CO2.
Data set [13] relates to HIV-1 BaL. In words: Microbicide activity in the dual-chamber model (HeLa apical, TZM-bl basal; luciferase). Particulars: Human immunodeficiency virus 1, BAL.
Method: as §4
The experiments were performed in triplicate and repeated three different times.
For data set [14], the system named is TZM-bl cells. In words: Cell viability in the dual-chamber model (resazurin). Particulars: resazurin method.
Method: The in vitro cytotoxic effect of each of the flavonoids was determined by a resazurin fluorometric method (Cell Titer Blue Viability Assay, Promega Corp, Madison, WI), as described by O'Brien et al. [27]. TZM-bl and HeLa adherent cells were each separately seeded (1×10^5 cell/mL) into a 96 well plate (Greiner Bio-One North America, Inc Monroe, NC, USA). After 24 hours, their morphology was observed under an inverted microscope. The experimental natural compounds were then added to the cultured cells (n = 9) plates, and incubated for 24 hours. The cells were washed with pre-warmed PBS (Lonza Walkersville, Inc. Walkersville, MD) and the medium was replaced with medium pre-warmed to 37°C. Resazurin was added, and the cells were incubated for 3.5 hours.
Transwell assay inserts with 8 µM diameter pores and 0.3 cm^2 of culture surface (Greiner Bio-One, Monroe, NC,) were positioned in the wells of a 24-well plate. Then 1×10^4 HeLa cells were seeded into each transwell insert/apical chamber (using DMEM with 10% FBS). […] To assess confluence, the Trans Epithelial Electric Resistance (TEER) (described by Arien et al. [33]) of each HeLa cell layer was measured with a Millicell-ERS Volt-Ohm Meter (Millipore, Bedford, MA) before and after flavonoids treatments. Cell layer confluence in the transwell inserts was measured daily, until the optimal TEER (>150 Ohm/cm^2) was reached on day 4. […]
[15] abbreviates: Human immunodeficiency virus 1, H9 cells, HIV-1 89.6, p24 ELISA, read-out: IC50.
The mark [16] stands for this setting: Human immunodeficiency virus 1, H9 cells, HIV-1 MN, p24 ELISA, read-out: IC50.
Setting [17] is: Human immunodeficiency virus 1, PBMC cells, HIV-1 MN, p24 ELISA, read-out: IC50.
Setting [18] is: TZM-bl cells, 24 hours treatment, concentration that kills 50% of the cells.
Where [19] appears, read: Human immunodeficiency virus 1, BAL, TZM-bl.
[20] abbreviates: Human immunodeficiency virus 1, H9.

Several values for one entry are separate records, joined by “and”; a condition that tells them apart may be missing. Equal values may be shown once. Entries after “also recorded” stand apart in the source; their conditions may differ. Read-outs that look alike come from different tables or passages of the source.

Usually IC50 stands for the midpoint of a concentration-inhibition curve. A word on the viability: it is the share of living cells, or the viability signal relative to a control. Regarding `O=C1C[C@@H](c2ccccc2)Oc2cc(O)cc(O)c21` [Pinocembrin], the LD50 in data set [1] (human, 24 h) came out at 788.23 µM; in data set [2] (human, 24 h), 67.94 µM; in [5] (human, 24 h), 99.52 µM; in [8] (human, 24 h) it was 805.76 µM. Besides, the IC50 was 42.2 µM in [3] (setting [15]); 67.2 µM in data set [4] (setting [16]); 57.7 µM in data set [6] (setting [17]); 347 µM in [7] (Human immunodeficiency virus 1, TZM-bl cells, HIV-1 BaL, MOI = 1, read-out: IC50); 53.2 µM in data set [9] (PBMC cells). In data set [3], the “inhibition of infection / anti-HIV activity, H9 cells, HIV-1 89.6” value is on record as not below 60%. Besides, in data set [4] (p24 ELISA), the “inhibition of infection / anti-HIV activity, H9 cells, HIV-1 MN” value is not below 60%. In addition, the “anti-HIV activity, PBMC cells, HIV-1 MN” value in [6] (p24 ELISA) came out at 67%. Further, the “anti-HIV activity compared with the vehicle control (HIV-1 BaL, TZM-bl)” value in [7] is reported as 28%. Besides, in data set [9], the “anti-HIV activity, PBMC cells, HIV-1 89.6” value is given as 51%. In data set [10] (PBMC and H9 cells), the viability at 24 h was not below 85%.

Take `O=c1c(O)c(-c2ccc(O)c(O)c2)oc2cc(O)cc(O)c12` [Quercetin]: the LD50 in data set [1] (PBMC cells) turned out to be 813.57 µM; in [2] (setting [18]), 119.23 µM; in data set [5] (HeLa cells, 24 hours treatment) it was 78.20 µM; in data set [8] (H9 cells), 905.76 µM. Also, the half-maximal inhibitory concentration (IC50) in data set [3] (setting [15]) came to 29.8 µM; in data set [4] (setting [16]), 38.8 µM; in data set [6] (setting [17]), 31.7 µM; in [7] (setting [19]), 89 µM; in data set [9] (PBMC cells), 39.3 µM. Further, in data set [3], the “inhibition of infection / anti-HIV activity, H9 cells, HIV-1 89.6” value was not below 64%. Further, in data set [4] (p24 ELISA), the “inhibition of infection / anti-HIV activity, H9 cells, HIV-1 MN” value was not below 64%. Besides, in data set [6] (p24 ELISA), the “anti-HIV activity, PBMC cells, HIV-1 MN” value worked out at 45%. Besides, the “anti-HIV activity compared with the vehicle control (HIV-1 BaL, TZM-bl)” value in data set [7] is on record as 39%. Moreover, the “anti-HIV activity, PBMC cells, HIV-1 89.6” value in data set [9] is 59%. Also, in [10], the viability at 24 h was not below 85%.

As usually defined, the inhibition is the share of the control response that was lost under treatment. With `Cc1cn([C@H]2C[C@H](N=[N+]=[N-])[C@@H](CO)O2)c(=O)[nH]c1=O` [AZT, Zidovudine, reference compound], the inhibition at 60 µM in data set [7] (Human immunodeficiency virus 1, BAL, TZM-bl, read-out: inhibition of HIV infection by positive control (HIV-1 BaL, TZM-bl)) was not below 90%. Besides, the “effect on cell growth” value in data set [11] is given as “did not affect the cell growth”.

In the case of `O=c1c(O)c(-c2cc(O)c(O)c(O)c2)oc2cc(O)cc(O)c12` [Myricetin], the “TEER of HeLa cell layer before and after flavonoid treatment” value in [12] came out at 208 Ohm/cm^2. For the same compound, the LD50 is 1159.26 µM in [1] (PBMC cells); 1214.92 µM and 1214.72 µM in [2] (setting [18]); 804.94 µM in data set [5] (HeLa cells, 24 hours treatment); 1059.09 µM in data set [8] (H9 cells). In addition, the “anti-HIV activity greater than for Pinocembrin, HIV-1 89.6, H9” value in data set [3] (H9 cells) was determined as 23.9 x. The “anti-HIV activity greater than for Quercetin, HIV-1 89.6, H9” value in data set [3] (H9 cells) was found to be 16.9 x. Moreover, the IC50 in data set [3] (setting [20]) amounted to 1.76 µM; in data set [4] (setting [20]), 22.9 µM; in [13] (read-out: IC50, HIV-1 BaL infection in dual-chamber system), 19.5 µM; in data set [6] (Human immunodeficiency virus 1, PBMC) it was 4.49 µM; in data set [7] (setting [19]) it was 20.4 µM. Moreover, the “anti-HIV activity greater compared to Pinocembrin, HIV-1 MN, H9” value in data set [4] (H9 cells) is given as approximately 2.9 x. Besides, the “anti-HIV activity greater than that of Quercetin, HIV-1 MN, H9” value in data set [4] (H9 cells) is recorded as “approximately 1.7 x”. Further, the inhibition at 100 µM in data set [13] (read-out: inhibition of HIV-1 BaL infection in dual-chamber system) was more than 88%; in data set [6] (Human immunodeficiency virus 1, PBMC, read-out: inhibition of HIV-1 MN infection in PBMC cells), 86%; in data set [7] (Human immunodeficiency virus 1, BAL, TZM-bl, read-out: inhibition of HIV-1 BaL infection in TZM-bl cells) it was more than 87%; in [9] (Human immunodeficiency virus 1, PBMC, read-out: inhibition of HIV-1 89.6 infection in PBMC cells), 85%. The “cell viability in dual-chamber model versus negative control (only cells)” value in data set [14] is listed as “no statistically significant difference; also recorded: did not show a statistically significant difference on cell viability”. For the same compound, the “x higher than Pinocembrin, HIV-1 89.6, PBMC” value in data set [9] (PBMC cells) was determined as 16.4 x. The “x higher than Quercetin, HIV-1 89.6, PBMC” value in data set [9] (PBMC cells) turned out to be 12.3 x. In addition, the “anti-HIV activity, PBMC cells, HIV-1 89.6” value in data set [9] is “more than 80%”. In data set [10] (PBMC and H9 cells, at 100 µM concentration, read-out: cell viability compared with the negative control (only cells)), the viability at 24 h, 100 µM is not below 85%.
